Assays:
MCF-7 xenografts = conditions: MIF 50 mg/kg/day, ONA 30 mg/kg/day, 17 days; cited from earlier work
breast cancer samples = experiment: Cultured breast cancer slices (chopper), Ki67; assay type: cell-based, human; conditions: 10 nM, 48 hs
Source text: Sections of formalin-fixed, paraffin-embedded tissue were stained with PR (C-19), or Ki67 (Dako, […]) antibodies using the avidin-biotin-peroxidase complex technique (Vectastain Elite ABC kit; Vector), as described previously (6). Positive cells were counted in 10 high-power fields (HPFs) of each section, using 1000× magnification, and expressed as the mean±SEM of the ratio between the number of positive events and the total cell number. Following the previous experiments shown in PART 1, breast cancer samples obtained after surgery from the Hospital General Pacheco (IRB approved by Hospital and IBYME) were used. Whenever possible, part of the sample is immediately frozen to be used in Western blot studies, other part is fixed to be used in IHC studies and a similar part is kept in medium culture. Slices obtained using a chopper were cultured for 48 hs with DMEM/F12 without phenol red and 10% fetal cal serum with or without MFP 10 nM. Tumor slices were then fixed, paraffin embedded and processed for immunohistochemistry. Cell proliferation was evaluated using Ki67 as described above. The number of slices depends on the sample size.

C4-HI = experiment: MPA breast cancer model, responsive tumor in vivo; design: species or system mouse
[1] = test system: thymic, renal pelvis, colon, pancreatic carcinomas, leiomyosarcoma, histiocytoma; conditions: 200 mg/day; cited from earlier work
[2] = test system: MXT mouse model of breast cancer; conditions: 1 or 10 mg/kg/day from one day post-transplantation; cited from earlier work
[3] = test system: epithelial cells from breast cancer samples; experiment: Primary cultures from breast cancer samples: cell number or Ki67; assay type: cell-based, human
Source text: The samples were obtained at surgery from patients diagnosed with breast cancer at the […]. de Martinez Hospital from General Pacheco and at the […] Hospital of Buenos Aires after signing the informed consent (n=70; median age 55 year). Protocols were approved by the Institutional Ethical Review Board. Whenever possible, one piece of the sample was kept in dry ice immediately after surgery and another piece was kept in culture medium and transported to IBYME. Tumor samples were processed by mechanical and enzymatic degradation and epithelial cells were purified by differential sedimentation techniques (7). The epithelial cells were cultured with DMEM/F12 medium plus 10% fetal calf serum (FCS). Once the cultures were overcrowded, they were subcultured and equal numbers of cells were seeded in 24 well plates. […] OH-Tamoxifen was also used as a control. After one week of treatment, the cells were trypsinized and the total number of cells in each well was counted or alternatively, they were fixed to evaluate the Ki67 (proliferation marker) expression by IHC. In several cases in which there were carcinoma associated fibroblasts intermingled with the epithelial cells, a double staining of Ki67 and cytokeratin (CK) was performed to consider the proliferating cells among the total number of epithelial cells (CK+). An inhibitory index was calculated for each tumor.

[4] = test system: prostate and ovarian cancer xenografts; conditions: 50 mg/kg/day; cited from earlier work
T47D-YB cells = conditions: 100 nM; cited from earlier work
HI-responsive tumors = conditions: daily doses of 10 mg/kg; cited from earlier work
IBH-6-PRA tumors = experiment: Xenograft in nude mice; assay type: in vivo, human
Source text: BH-6 cell line was developed from an invasive ductal breast carcinoma (1). IBH-6 cells express basal levels of hormone receptors, they are tumorigenic and in vivo express higher levels of PRB than PRA (2). Cells were transfected with human PRB, PRA (pSG5-PRB, pSG5-PRA, kindly provided by K. Horwitz) or with the empty vector (pSG5), together with a plasmid encoding the neomycin resistance gene pIRES-N1(3), using Lipofectamine transfection reagent (Invitrogen) following the manufacturer's instructions. Transfected and selected cells were cultured in medium supplemented with […] G418 (neomycin analogue, GIBCO). The expression of PRB and PRA were analyzed by western blot and immunofluorescence (using Ab7 and Ab6 antibodies from Thermo Fisher). T47D-YA or YB were kindly provided by K. Horwitz and cultured as previously described (4).
Transfected and selected cells were grown up to confluence, washed with PBS, detached with 0.25% trypsin, centrifuged at 1000 rpm for 10 min and resuspended in a final concentration of 10^6 (IBH-6) or 5×10^6 (T47D) cells per 100 μl of culture medium. The cells were sc inoculated into the right flank of nu/nu (IBH-6) or NOD/LtSz-scid/IL-2Rgamma null (T47D-YA or -YB cells) female mice. Only in experiments involving T47D cells E2 silastic pellets (0.5 mg) were implanted sc into the back of the animals one week prior tumor cell inoculation and 70 μl of Matrigel were mixed with the cell suspension at the moment of injection. MFP (6 mg) silastic pellets were sc implanted when tumors reached 20-40 mm^2. For T47D cells, experiments were repeated inoculating both cell types (T47D-YA or -YB) simultaneously in the left or right flank of the mouse, respectively.
Cytosolic or nuclear extracts were processed for western blots as described previously (5). The cells were lysed using Mammalian Protein Extraction Reagent (Pierce, Rockford, Ill.) according to the manufacturer's instructions. […] The band intensities from 3-4 different samples in different western blots were quantified using Image Quant software.

[5] = test system: BT-474 and T47D xenografts; conditions: 25 mg; mice treated with E2 followed by MPA; cited from earlier work
[6] = test system: primary cultures of responsive tumors; conditions: cited from earlier work

CC#C[C@]1(O)CC[C@H]2[C@@H]3CCC4=CC(=O)CCC4=C3[C@@H](c3ccc(N(C)C)cc3)C[C@@]21C [RU-486, mifepristone]
E2-induced proliferation of xenografts (MCF-7 xenografts): inhibited
Ki67 (breast cancer samples; 1 PR negative case): no inhibition was observed
Ki67 (breast cancer samples; 1 case PRA/PRB lower than 1): significant inhibition
Ki67 (breast cancer samples; 2 cases PRA/PRB lower than 1): no inhibition was observed
Ki67 (breast cancer samples; 3 cases PRA/PRB high): significant inhibition of Ki67
Ki67, stimulation (breast cancer samples; PRA/PRB lower than 1, FIG. 25): significant stimulation
differentiation (histology) (C4-HI; mouse, in vivo): increase in differentiation
tumor growth (C4-HI; tumors with higher PR-A than PR-B, FIG. 15): completely inhibited
clinical outcome [1]: Improvements and pain relief were observed in all patients
tumor take and stimulatory effects of E2 and MPA [2]: inhibited both tumor take and the stimulatory effects of E2 and MPA
number of cells as compared to the controls ([3]; 10^-8 M, one week, 3 out of 8 cases, p<0.05): significant decrease in the number of cells
cell proliferation, case #137 ([3]; ER+ PR+ invasive ductal carcinoma, high PR-A/PR-B, 10^-8 M): decrease in cell proliferation
effect on cell proliferation ([3]; samples with high levels of PR-A expression): inhibitory effect
in vitro responsiveness ([3]; three PR negative tumors): no in vitro responsiveness
xenograft growth [4]: inhibitory
cell proliferation (T47D-YB cells): increased cell proliferation
tumor regression (HI-responsive tumors): regress
in vivo growth (IBH-6-PRA tumors; MFP 6 mg pellet, p<0.05): inhibited
expression of MYC (IBH-6-PRA tumors; western blot, p<0.01): significantly inhibited
expression of CCND1 (IBH-6-PRA tumors; western blot, p<0.05): significantly inhibited
growth of xenografts [5]: prevent the growth
MPA-induced or FGF2-induced cell proliferation ([6]; 1-100 nM): inhibited MPA-induced or FGF2-induced cell proliferation
cell proliferation at very low concentrations ([6]; 10-12 M): stimulate cell proliferation
